Reference: patent US11629171B2, “Beta-hairpin peptidomimetics” (POLYPHOR AG, priority 2017, dated 2023)
Converted amounts (≈) assume the structure as drawn. Where a SMILES comes first, the peptide text is derived from it. Bridges are numbered along the chain shown (N, C = ends). Roman numbers before positions name the chains, in order. [ ]: non-standard residue; d: D form. Tle = CC(C)(C)[C@H](N)C(=O)O; dDab = NCC[C@@H](N)C(=O)O; Dab = NCC[C@H](N)C(=O)O; Dap = NC[C@H](N)C(=O)O; Mpa = O=C(O)CCS

Experiments:
Assay type in all cases: cell-based
[1] = test system: human red blood cells (hRBC); assay: Hemolysis; conditions: red cells of human, 1 h, 200
Summary of the method: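 Washed fresh hRBC (20% v/v) were incubated with peptides at 200 μg/mL for 1 h at 37° C with shaking at 300 rpm. Supernatant OD540 was read after centrifugation and dilution, blank-corrected, and expressed as percent of the 2% Triton X-100 (100% lysis) control; PBS with 10% water gave 0%.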

[2] = test system: Klebsiella pneumoniae 968733; conditions: 968733
Summary of the method: (§1)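 CLSI broth microdilution: inoculum ~10^6 CFU/mL in cation-adjusted Mueller-Hinton II broth, with peptide in serial two-fold dilutions plus Polysorbate 80 (0.002% final). MIC (μg/mL) is the lowest concentration without visible growth after 18-20 hours at 35° C.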

[3] = test system: Pseudomonas aeruginosa ATCC 27853; conditions: ATCC 27853
Summary of the method: as §1

[4] = test system: Klebsiella pneumoniae SSI #3010; conditions: SSI #3010
Summary of the method: as §1

[5] = test system: Acinetobacter baumannii DSM 30008; conditions: DSM 30008
Summary of the method: as §1

[6] = test system: Enterobacter cloacae 848840; conditions: 848840
Summary of the method: as §1

[7] = test system: Escherichia coli ATCC 25922; conditions: ATCC 25922
Summary of the method: as §1

[8] = test system: Escherichia coli 926415; conditions: 926415
Summary of the method: as §1

[9] = test system: Acinetobacter baumannii 872842; conditions: 872842
Summary of the method: as §1

## CC(=O)N[C@@H](CCC(=O)O)C(=O)N[C@H](C(=O)N[C@H](C(=O)N[C@@H](Cc1ccc(O)cc1)C(=O)N[C@@H](CN)C(=O)N[C@@H](CCC(=O)N[C@@H](CCN)C(=O)N[C@H](C(=O)N[C@@H](CN)C(=O)N[C@H]1CCNC(=O)[C@H]([C@@H](C)O)NC(=O)[C@H](CCN)NC(=O)[C@H](CCN)NC(=O)[C@H](CC(C)C)NC(=O)[C@@H](CC(C)C)NC(=O)[C@H](CCN)NC1=O)[C@@H](C)O)C(=O)N[C@H](CCN)C(=O)N[C@@H](CCN)C(=O)N[C@@H](Cc1c[nH]c2ccccc12)C(=O)N[C@@H](CO)C(=O)N[C@H](C(=O)N[C@@H](C)C(=O)N[C@@H](CO)C(=O)N[C@@H](CCN)C(N)=O)C(C)(C)C)[C@@H](C)O)C(C)C [Ex. 247] (I: Ac-EVTY[Dap]E[dDab][Dab]WS[Tle]AS[Dab]-NH2 / II: [Dab]T[Dap][Dab][Dab][dL]L[Dab][Dab]T; amide I:6-II:N; lactam II:4-II:C)
[1]
  Hemolysis at 200 μg/mL: <1%
[2]
  MIC: 8 µg/mL (≈ 3.07 µM)
[3]
  MIC: 0.25 µg/mL (≈ 0.0958 µM)
[4]
  MIC: 0.25 µg/mL (≈ 0.0958 µM)
[5]
  MIC: 0.125 µg/mL (≈ 0.0479 µM)
[6]
  MIC: 0.25 µg/mL (≈ 0.0958 µM)
[7]
  MIC: 0.125 µg/mL (≈ 0.0479 µM)
[8]
  MIC: 0.5 µg/mL (≈ 0.192 µM)
[9]
  MIC: 0.5 µg/mL (≈ 0.192 µM)

## CC(=O)N[C@@H](CCN)C(=O)N[C@H](C(=O)N[C@H](C(=O)N[C@@H](Cc1ccc(O)cc1)C(=O)N[C@@H](CN)C(=O)N[C@@H](CCC(=O)N[C@@H](CCN)C(=O)N[C@H](C(=O)N[C@@H](CN)C(=O)N[C@H]1CCNC(=O)[C@H]([C@@H](C)O)NC(=O)[C@H](CCN)NC(=O)[C@H](CCN)NC(=O)[C@H](CC(C)C)NC(=O)[C@@H](CC(C)C)NC(=O)[C@H](CCN)NC1=O)[C@@H](C)O)C(=O)N[C@H](CCN)C(=O)N[C@@H](CCN)C(=O)N[C@@H](Cc1c[nH]c2ccccc12)C(=O)N[C@@H](CO)C(=O)N[C@H](C(=O)N[C@@H](C)C(=O)N[C@@H](CO)C(=O)N[C@@H](CCC(=O)O)C(N)=O)C(C)(C)C)[C@@H](C)O)C(C)C [Ex. 248] (I: Ac-[Dab]VTY[Dap]E[dDab][Dab]WS[Tle]ASE-NH2 / II: [Dab]T[Dap][Dab][Dab][dL]L[Dab][Dab]T; amide I:6-II:N; lactam II:4-II:C)
[1]
  Hemolysis at 200 μg/mL: <1%
[2]
  MIC: 4 µg/mL (≈ 1.53 µM)
[3]
  MIC: 0.25 µg/mL (≈ 0.0958 µM)
[4]
  MIC: 0.125 µg/mL (≈ 0.0479 µM)
[5]
  MIC: 0.5 µg/mL (≈ 0.192 µM)
[6]
  MIC: 4 µg/mL (≈ 1.53 µM)
[7]
  MIC: 0.125 µg/mL (≈ 0.0479 µM)
[8]
  MIC: 0.25 µg/mL (≈ 0.0958 µM)
[9]
  MIC: 1 µg/mL (≈ 0.383 µM)

## CC(=O)N[C@@H](CCN)C(=O)N[C@H](C(=O)N[C@H](C(=O)N[C@@H](Cc1ccc(O)cc1)C(=O)N[C@@H](CN)C(=O)N[C@@H](CCC(=O)N[C@@H](CCN)C(=O)N[C@H](C(=O)N[C@@H](CN)C(=O)N[C@H]1CCNC(=O)[C@H]([C@@H](C)O)NC(=O)[C@H](CCN)NC(=O)[C@H](CCN)NC(=O)[C@H](CC(C)C)NC(=O)[C@@H](CC(C)C)NC(=O)[C@H](CCN)NC1=O)[C@@H](C)O)C(=O)N[C@H](CCN)C(=O)N[C@@H](CO)C(=O)N[C@@H](Cc1c[nH]c2ccccc12)C(=O)N[C@@H](CO)C(=O)N[C@H](C(=O)N[C@@H](CO)C(=O)N[C@H](C(=O)N[C@@H](CCC(=O)O)C(N)=O)C(C)C)C(C)(C)C)[C@@H](C)O)C(C)C [Ex. 249] (I: Ac-[Dab]VTY[Dap]E[dDab]SWS[Tle]SVE-NH2 / II: [Dab]T[Dap][Dab][Dab][dL]L[Dab][Dab]T; amide I:6-II:N; lactam II:4-II:C)
[1]
  Hemolysis at 200 μg/mL: 2%
[2]
  MIC: 0.25 µg/mL (≈ 0.0953 µM)
[3]
  MIC: 0.125 µg/mL (≈ 0.0476 µM)
[4]
  MIC: 0.0625 µg/mL (≈ 0.0238 µM)
[5]
  MIC: 0.03125 µg/mL (≈ 0.0119 µM)
[6]
  MIC: 0.125 µg/mL (≈ 0.0476 µM)
[7]
  MIC: 0.03125 µg/mL (≈ 0.0119 µM)
[8]
  MIC: 0.125 µg/mL (≈ 0.0476 µM)
[9]
  MIC: 0.03125 µg/mL (≈ 0.0119 µM)

## CC(C)C[C@@H]1NC(=O)[C@@H](CC(C)C)NC(=O)[C@H](CCN)NC(=O)[C@@H](NC(=O)[C@H](CN)NC(=O)[C@@H](NC(=O)[C@H](CCN)NC(=O)CC[C@@H]2NC(=O)[C@H](CO)NC(=O)[C@H](Cc3ccc(O)cc3)NC(=O)[C@H]([C@@H](C)O)NC(=O)[C@H](C(C)C)NC(=O)CCSSC[C@@H](C(N)=O)NC(=O)[C@H]([C@@H](C)O)NC(=O)[C@H](C)NC(=O)[C@H](C(C)(C)C)NC(=O)[C@H](CCC(=O)O)NC(=O)[C@H](Cc3c[nH]c4ccccc34)NC(=O)[C@H](CCN)NC(=O)[C@@H](CCN)NC2=O)[C@@H](C)O)CCNC(=O)[C@H]([C@@H](C)O)NC(=O)[C@H](CCN)NC(=O)[C@H](CCN)NC1=O [Ex. 250] (I: [Mpa]VTYSE[dDab][Dab]WE[Tle]ATC-NH2 / II: [Dab]T[Dap][Dab][Dab][dL]L[Dab][Dab]T; disulfide I:1-I:14; amide I:6-II:N; lactam II:4-II:C)
[1]
  Hemolysis at 200 μg/mL: 1%
[2]
  MIC: 0.125 µg/mL (≈ 0.0484 µM)
[3]
  MIC: 0.125 µg/mL (≈ 0.0484 µM)
[4]
  MIC: 0.0625 µg/mL (≈ 0.0242 µM)
[5]
  MIC: 0.03125 µg/mL (≈ 0.0121 µM)
[6]
  MIC: 0.0625 µg/mL (≈ 0.0242 µM)
[7]
  MIC: 0.03125 µg/mL (≈ 0.0121 µM)
[8]
  MIC: 0.0625 µg/mL (≈ 0.0242 µM)
[9]
  MIC: 0.03125 µg/mL (≈ 0.0121 µM)

## CC(=O)N[C@H](C(=O)N[C@H]1CSSC[C@@H](C(=O)N[C@@H](CO)C(N)=O)NC(=O)[C@H](C(C)C)NC(=O)[C@H](CO)NC(=O)[C@H](Cc2c[nH]c3ccccc23)NC(=O)[C@H](CCN)NC(=O)[C@@H](CCN)NC(=O)[C@H](CCC(=O)N[C@@H](CCN)C(=O)N[C@H](C(=O)N[C@@H](CN)C(=O)N[C@H]2CCNC(=O)[C@H]([C@@H](C)O)NC(=O)[C@H](CCN)NC(=O)[C@H](CCN)NC(=O)[C@H](CC(C)C)NC(=O)[C@@H](CC(C)C)NC(=O)[C@H](CCN)NC2=O)[C@@H](C)O)NC(=O)[C@H](CO)NC(=O)[C@H](Cc2ccc(O)cc2)NC1=O)C(C)C [Ex. 251] (I: Ac-VCYSE[dDab][Dab]WSVCS-NH2 / II: [Dab]T[Dap][Dab][Dab][dL]L[Dab][Dab]T; disulfide I:2-I:11; amide I:5-II:N; lactam II:4-II:C)
[1]
  Hemolysis at 200 μg/mL: 1%
[2]
  MIC: 0.0625 µg/mL (≈ 0.0261 µM)
[3]
  MIC: 0.0625 µg/mL (≈ 0.0261 µM)
[4]
  MIC: 0.03125 µg/mL (≈ 0.013 µM)
[5]
  MIC: 0.01562 µg/mL (≈ 0.00651 µM)
[6]
  MIC: 0.125 µg/mL (≈ 0.0521 µM)
[7]
  MIC: 0.03125 µg/mL (≈ 0.013 µM)
[8]
  MIC: 0.125 µg/mL (≈ 0.0521 µM)
[9]
  MIC: 0.03125 µg/mL (≈ 0.013 µM)

## CC(=O)N[C@H](C(=O)N[C@H]1CSSC[C@@H](C(=O)N[C@@H](CO)C(N)=O)NC(=O)[C@H](C(C)(C)C)NC(=O)[C@H](CO)NC(=O)[C@H](Cc2c[nH]c3ccccc23)NC(=O)[C@H](CCN)NC(=O)[C@@H](CCN)NC(=O)[C@H](CCC(=O)N[C@@H](CCN)C(=O)N[C@H](C(=O)N[C@@H](CN)C(=O)N[C@H]2CCNC(=O)[C@H]([C@@H](C)O)NC(=O)[C@H](CCN)NC(=O)[C@H](CCN)NC(=O)[C@H](CC(C)C)NC(=O)[C@@H](CC(C)C)NC(=O)[C@H](CCN)NC2=O)[C@@H](C)O)NC(=O)[C@H]([C@@H](C)O)NC(=O)[C@H](Cc2ccc(O)cc2)NC1=O)C(C)C [Ex. 252] (I: Ac-VCYTE[dDab][Dab]WS[Tle]CS-NH2 / II: [Dab]T[Dap][Dab][Dab][dL]L[Dab][Dab]T; disulfide I:2-I:11; amide I:5-II:N; lactam II:4-II:C)
[1]
  Hemolysis at 200 μg/mL: 2%
[2]
  MIC: 0.125 µg/mL (≈ 0.0515 µM)
[3]
  MIC: 0.0625 µg/mL (≈ 0.0258 µM)
[4]
  MIC: 0.03125 µg/mL (≈ 0.0129 µM)
[5]
  MIC: 0.0625 µg/mL (≈ 0.0258 µM)
[6]
  MIC: 0.125 µg/mL (≈ 0.0515 µM)
[7]
  MIC: 0.0625 µg/mL (≈ 0.0258 µM)
[8]
  MIC: 0.125 µg/mL (≈ 0.0515 µM)
[9]
  MIC: 0.0625 µg/mL (≈ 0.0258 µM)
